# Values of other authors, collected in patent US9566312B2, “Cyclic peptides and use as medicines” (priority 2012, dated 2017).
# Legend:
# hepatitis C virus = settings: patients, 1200 mg twice daily; cited from earlier work
# HCV replicon = settings: cited from earlier work
# HBV in HepG2215 cells = settings: cited from earlier work
smiles,measurement,setting,value
C/C=C/C[C@@H](C)[C@@H](O)[C@H]1C(=O)N[C@@H](CC)C(=O)N(C)[C@H](C)C(=O)N(CC)[C@@H](C(C)C)C(=O)N[C@@H](C(C)C)C(=O)N(C)[C@@H](CC(C)C)C(=O)N[C@@H](C)C(=O)N[C@H](C)C(=O)N(C)[C@@H](CC(C)C)C(=O)N(C)[C@@H](CC(C)C)C(=O)N(C)[C@@H](C(C)C)C(=O)N1C [DEBIO-025],mean hepatitis C load,hepatitis C virus,significantly decreased
C=CC[C@@H]1/C=C(\C)C[C@H](C)C[C@H](OC)[C@H]2O[C@@](O)(C(=O)C(=O)N3CCCC[C@H]3C(=O)O[C@H](/C(C)=C/[C@@H]3CC[C@@H](O)[C@H](OC)C3)[C@H](C)[C@@H](O)CC1=O)[C@H](C)C[C@@H]2OC [FK506],effect on HCV replication,HCV replicon,did not have significant effect
C/C=C/C[C@@H](C)[C@@H](O)[C@H]1C(=O)N[C@@H](CC)C(=O)N(C)[C@H](C)C(=O)N(CC)[C@@H](C(C)C)C(=O)N[C@@H](C(C)C)C(=O)N(C)[C@@H](CC(C)C)C(=O)N[C@@H](C)C(=O)N[C@H](C)C(=O)N(C)[C@@H](CC(C)C)C(=O)N(C)[C@@H](CC(C)C)C(=O)N(C)[C@@H](C(C)C)C(=O)N1C [alisporivir],reduction in intracellular HBV DNA levels,"HBV in HepG2215 cells; 5.0 mcg/mL, 72 hours",10 fold
same,reduction of HBsAg secretion from cells compared with controls,HBV in HepG2215 cells,about 50%
